Measurements published in patent publication US20210274789A1, “Antimicrobial Surface Treatment” (Kode Biotech Limited, priority 2018, published 2021).

Legend:
Type in all cases: cell-based
Staphylococcus aureus [1] = assay: AgNP augmented antibacterial surface treatment of adhesive bandage swatches, resazurin; design: key: Growth: growth (growth); Inhibition: inhibition of growth (inhibition); No growth: prevention of growth (no growth); conditions: 37° C. for 24 hours, duplicate swatches
Experimental: (§1) Preparation of negatively charged silver nanoparticles Negatively charged nanoparticles of silver (AgNPs) were prepared according to the following method. Quantities of 2 g glucose and 1 g polyvinylpyrrolidone (PVP) were dissolved in water and the resultant volume heated to 90° C. A quantity of 0.5 g of silver nitrate (AgNO3) was dissolved in a separate volume of 1 mL water and the two volumes then rapidly mixed. The mixed volume was maintained at a temperature of 90° C. for a period of time of one hour before cooling to room temperature. The AgNPs were collected by repeated (3 times) centrifugation at 14,000 rpm for a period of time of 60 minutes and resuspension in deionised filtered water (Milli-Q) to remove excess oxidation products, PVP and silver ion (Ag^+). The washed suspension of AgNPs was stored in the dark at 4° C. The AgNPs were characterised by […] dispersive spectroscopy (EDS) and UV-Vis absorbance scanning.
(§2) Swatches (5×5 mm squares) were cut from the fabric portion of commercially available adhesive bandages (BAND-AID™, Quilt-Aid Technology, Johnson & Johnson). A volume of 50 μL of a 0.13 mM dispersion of one of the following constructs was pipetted onto the surface of a swatch: FSL-biotin, FSL-0, FSL-HA17 kDa, FSL-Se and FSL-spm.
(§3) The swatches were air-dried at a temperature of 80° C. prior to washing (3 times) with sterile, filtered, deionised water (Milli-Q).
(§4) Controls were prepared without contacting the swatches with constructs or without washing following contacting the swatches with construct. Individual treated squares (including controls) were placed in the bottom of individual wells of a 96-well plate and inoculated with a volume of 10 μL of a serial dilution of a log phase culture in Mueller Hinton (MH) broth of one of the following bacteria: • Staphylococcus aureus • Staphylococcus epidermis • Escherichia coli • Pseudomonas aeruginosa
(§5) The inoculated swatches were then incubated for 10 minutes before dispensing into each well of the plate a volume of 50 μL of sterile, filtered, deionised water (Milli-Q) and 150 μL of MH broth containing 0.00266% (w/v) resazurin and incubating for a period of time of 24 hours at a temperature of 37° C. The observations of resulting growth (as indicated by a colour change from blue to red) from the estimated bacterial load (2.5×10^4 or 2.5×10^6 colony forming units (cfu)) for each treatment and species of bacterium are recorded in Tables 5 to 8.

Escherichia coli [2] = assay: as above; design: key: Growth: growth (growth); Inhibition: inhibition of growth (inhibition); No growth: prevention of growth (no growth); conditions: 37° C. for 24 hours, duplicate swatches
Experimental: as §1, §2, §3, §4, §5

Staphylococcus epidermis [3] = assay: as above; design: key: Growth: growth (growth); Inhibition: inhibition of growth (inhibition); No growth: prevention of growth (no growth); conditions: 37° C. for 24 hours, duplicate swatches
Experimental: as §1, §2, §3, §4, §5

Pseudomonas aeruginosa [4] = assay: as above; design: key: Growth: growth (growth); Inhibition: inhibition of growth (inhibition); No growth: prevention of growth (no growth); conditions: 37° C. for 24 hours, duplicate swatches
Experimental: as §1, §2, §3, §4, §5

Staphylococcus aureus [5] = assay: Growth on bandage substrate treated with crystal violet alone or with a construct, resazurin colour change; design: key: No growth: dark blue (no growth); Reduced growth: purple (reduced growth); Growth: light red (growth)
Experimental: (§6) Swatches (1 cm diameter circular disks) were cut from the fabric portion of commercially available adhesive bandages (BAND-AID™ Quilt-Aid Technology, Johnson & Johnson). Volumes of 50 μL were dispended onto the surface of the swatches and the swatches allowed to air dry undisturbed at 80° C. The volumes consisted of dispersions or solutions in deionized water of 0.04% (w/v) crystal violet, 0.25 mM or 0.13 mM of the construct designated FSL-Se or the construct designated FSL-0, or water alone. A further volume of 100 μL of 0.04% (w/v) crystal violet in deionized water was dispensed onto the surface of the dried treated swatches and incubated undisturbed at room temperature for 10 minutes before rinsing as before with sterile deionized water.
(§7) Frozen stock cultures of bacterial isolates (Staphylococcus aureus, Staphylococcus epidermis, Escherichia coli or Pseudomonas aeruginosa) were streaked on Columbia sheep blood agar plates (Fort Richard Laboratories) and the plates incubated at 37° C. for 24 hours when separate colonies had developed. Two to three colonies were then transferred to a volume of 10 mL of 21 g/L Muller-Hinton (MH) broth, vortexed and the turbidity measured at 600 nm. The MH broth was diluted with a further volume so that the turbidity provided an optical density of 0.20 for the suspensions of Staphylococcus aureus and Staphylococcus epidermis and 0.08 for the suspensions of Escherichia coli and Pseudomonas aeruginosa. The diluted suspensions (around 10^8 cfu/mL) were serially diluted.
(§8) Individual treated swatches from each treatment group were placed at the base of separate wells in a 96-well cell culture plate. Volumes of 10 μL of serial dilutions of the suspensions of bacteria were dispensed onto the surface of the swatches (excluding the negative control). The inoculated swatches were then incubated undisturbed at room temperature for 10 minutes before dispensing into each well a volume of 50 μL of sterile deionized water and 150 μL of MH broth containing 0.02% resazurin sodium salt (Sigma-Aldrich).
(§9) The colour change (if any) observed in each well was observed after incubation of the plate for 24 hours at 37° C. Observations are recorded in Tables 1, 2, 3 and 4.

Escherichia coli [6] = assay: as above; design: key: No growth: dark blue (no growth); Reduced growth: purple (reduced growth); Growth: light red (growth); conditions: crystal violet alone
Experimental: as §6, §7, §8, §9

Pseudomonas aeruginosa [7] = assay: as above; design: key: No growth: dark blue (no growth); Reduced growth: purple (reduced growth); Growth: light red (growth); conditions: crystal violet alone
Experimental: as §6, §7, §8, §9

Staphylococcus epidermis [8] = assay: as above; design: key: No growth: dark blue (no growth); Reduced growth: purple (reduced growth); Growth: light red (growth); conditions: 0.25 mM construct in combination with crystal violet
Experimental: as §6, §7, §8, §9

[9] = unwashed following application of the FSL construct, load 2.53 × 10^4 cfu
[10] = unwashed following application of the FSL construct, load 2.53 × 10^6 cfu
[11] = washed following application of the FSL construct, load 2.53 × 10^4 cfu
[12] = washed following application of the FSL construct, load 2.53 × 10^6 cfu
[13] = unwashed following application of the FSL construct, load 1.99 × 10^4 cfu
[14] = unwashed following application of the FSL construct, load 1.99 × 10^6 cfu
[15] = washed following application of the FSL construct, load 1.99 × 10^4 cfu
[16] = washed following application of the FSL construct, load 1.99 × 10^6 cfu
[17] = unwashed following application of the FSL construct, load 2.11 × 10^4 cfu
[18] = unwashed following application of the FSL construct, load 2.11 × 10^6 cfu
[19] = washed following application of the FSL construct, load 2.11 × 10^4 cfu
[20] = washed following application of the FSL construct, load 2.11 × 10^6 cfu
[21] = unwashed following application of the FSL construct, load 1.75 x 10^4 cfu
[22] = unwashed following application of the FSL construct, load 1.75 × 10^6 cfu
[23] = washed following application of the FSL construct, load 1.75 x 10^4 cfu
[24] = washed following application of the FSL construct, load 1.75 x 10^6 cfu
[25] = challenge 1.5 × 10^4 to 10^5 cfu

Compound	Observations of growth, inhibition of growth or prevention of growth (Staphylococcus aureus [1]; [9])	Observations of growth, inhibition of growth or prevention of growth (Staphylococcus aureus [1]; [10])	Observations of growth, inhibition of growth or prevention of growth (Staphylococcus aureus [1]; [11])	Observations of growth, inhibition of growth or prevention of growth (Staphylococcus aureus [1]; [12])	Observations of growth, inhibition of growth or prevention of growth (Escherichia coli [2]; [13])	Observations of growth, inhibition of growth or prevention of growth (Escherichia coli [2]; [14])	Observations of growth, inhibition of growth or prevention of growth (Escherichia coli [2]; [15])	Observations of growth, inhibition of growth or prevention of growth (Escherichia coli [2]; [16])	Observations of growth, inhibition of growth or prevention of growth (Staphylococcus epidermis [3]; [17])	Observations of growth, inhibition of growth or prevention of growth (Staphylococcus epidermis [3]; [18])	Observations of growth, inhibition of growth or prevention of growth (Staphylococcus epidermis [3]; [19])	Observations of growth, inhibition of growth or prevention of growth (Staphylococcus epidermis [3]; [20])	Observations of growth, inhibition of growth or prevention of growth (Pseudomonas aeruginosa [4]; [21])	Observations of growth, inhibition of growth or prevention of growth (Pseudomonas aeruginosa [4]; [22])	Observations of growth, inhibition of growth or prevention of growth (Pseudomonas aeruginosa [4]; [23])	Observations of growth, inhibition of growth or prevention of growth (Pseudomonas aeruginosa [4]; [24])	also measured
CN(C)c1ccc(C(=C2C=CC(=[N+](C)C)C=C2)c2ccc(N(C)C)cc2)cc1.[Cl-] [Crystal violet, N-[4-[bis[4-(dimethylamino)phenyl]methylene]-2,5-cyclohexadien-1-ylidene]-N-methyl-methanaminium chloride]	Growth	Growth	Growth	Growth	Growth	Growth	Growth	Growth	Inhibition	Growth	Inhibition	Growth	Growth	Growth	Growth	Growth	Growth monitored by colour change of resazurin containing MH broth (Staphylococcus aureus [5]; crystal violet alone, challenge 500 to 1,000 cfu): No growth; Growth monitored by colour change of resazurin containing MH broth (Escherichia coli [6]; [25]): Growth; Growth monitored by colour change of resazurin containing MH broth (Escherichia coli [6]; challenge 5 × 10^3 to 10^4 cfu): Growth; Growth monitored by colour change of resazurin containing MH broth (Escherichia coli [6]; challenge 500 to 1,000 cfu): Growth; Growth monitored by colour change of resazurin containing MH broth (Escherichia coli [6]; challenge >10^5 cfu): Growth; Growth monitored by colour change of resazurin containing MH broth (Pseudomonas aeruginosa [7]; [25]): Growth; Growth monitored by colour change of resazurin containing MH broth (Pseudomonas aeruginosa [7]; challenge 5 × 10^3 to 10^4 cfu): Growth; Growth monitored by colour change of resazurin containing MH broth (Pseudomonas aeruginosa [7]; challenge 10^3 to 5 × 10^3 cfu): Growth; Growth monitored by colour change of resazurin containing MH broth (Pseudomonas aeruginosa [7]; challenge <500 cfu): Growth; Growth monitored by colour change of resazurin containing MH broth (Pseudomonas aeruginosa [7]; challenge >10^5 cfu): Growth
NCSeCH2CO-CMG(2)-Ad-DOPE [FSL-Se]	Growth	Growth	Growth	Growth	Growth	Growth	Growth	Growth	Growth	Growth	Growth	Growth	Growth	Growth	Growth	Growth	Growth monitored by colour change of resazurin containing MH broth (Staphylococcus aureus [5]; 0.25 mM construct in combination with crystal violet, challenge 1.5 × 10^4 to 10^5 cfu): No growth; Growth monitored by colour change of resazurin containing MH broth (Staphylococcus aureus [5]; 0.25 mM construct in combination with crystal violet, challenge 10^3 to 5 × 10^3 cfu): No growth; Growth monitored by colour change of resazurin containing MH broth (Staphylococcus aureus [5]; 0.25 mM construct in combination with crystal violet, challenge >10^5 cfu): No growth; Growth monitored by colour change of resazurin containing MH broth (Staphylococcus epidermis [8]; challenge 10^3 to 5 × 10^3 cfu): No growth; Growth monitored by colour change of resazurin containing MH broth (Staphylococcus epidermis [8]; challenge 10^4 to 1.5 × 10^4 cfu): No growth; Growth monitored by colour change of resazurin containing MH broth (Staphylococcus epidermis [8]; challenge >10^5 cfu): No growth
